Usually IC50 stands for the point on the concentration scale where inhibition reaches its midpoint. As usually defined, the MIC is the lowest concentration found to suppress growth. Broadly, the zone of inhibition is the extent of the growth-free halo in a diffusion test.

The target in test [1] is T1, Class D beta-lactamase OXA 23 (A. baumannii NCTC 13301) (Acinetobacter baumannii, UniProt Q9L4P2).
T1 construct: preincubated mixture of crude enzyme and the compounds; endogenous in cells; host or cells: A. baumannii NCTC 13301
The test is described as follows: Beta-lactamase enzyme inhibition (Nitrocefin, crude enzyme). The format is biochemical. Conditions: A. baumannii NCTC 13301 (OXA 23). Here is the method: (§1) Absorbance was measured at 485 nm by UV-spectrophotometer. The IC50 was calculated by plotting absorbance against concentration through Sigmoidal dose response curve using Graph Pad software.
(§2) The enzyme inhibition was expressed as IC50.

In test [2] the target is Class D beta-lactamase OXA 26 (A. baumannii NCTC 13303) (Acinetobacter baumannii, UniProt Q9F0V2). The test is described as above. The format is biochemical. Conditions: read-out: Beta-lactamase enzyme inhibition IC50, A. baumannii NCTC 13303 (OXA 26). Here is the method: as §1
The subject of test [3] is E. coli NCTC 13353 (CTX-M15, OXA-1). The test is described as follows: Antibacterial activity (MIC), agar dilution per CLSI. The format is cell-based. Conditions: Escherichia coli. Here is the method: (§3) The biological activity of representative compounds according to the invention against various bacterial strains was investigated. In a typical study, overnight grown bacterial cultures were diluted appropriately and inoculated on the agar media containing doubling dilutions of the test compounds. Observations for growth or no growth was performed after 16-20 hours of incubation at 35±2° C. in the ambient air. The overall procedure was performed as per Clinical and Laboratory Standards Institute (CLSI) recommendations, (Clinical and Laboratory Standards Institute (CLSI), Performance Standards for Antimicrobial Susceptibility Testing, 20th Informational Supplement, M07-A9, Volume 32, No. 2, 2012). Molten Mueller Hinton Agar (BD, USA) containing serial dilutions of each antibacterial agent were poured on to the plates and allowed to solidify. Appropriate suspensions from the freshly grown cultures were prepared in normal saline so that about 10^4 CFU/spot of the organism was delivered on to the drug containing agar plates using automated multipoint inoculator (Mast, UK). The plates were incubated in Biochemical oxygen demand (BOD) incubator at 37° C. for 18 hours and then examined for growth.
(§4) The strains selected for study included E. coli NCTC 13353 producing CTX-M15 and OXA-1 beta-lactamase enzymes; K. pneumoniae H521 producing KPC, SHV, TEM beta-lactamase enzymes; and K. pneumoniae S48 producing NDM, SHV, TEM beta-lactamase enzymes. The activities are expressed as Minimum Inhibitory Concentrations (MICs) (mcg/ml).
(§5) The activities are expressed as Minimum Inhibitory Concentrations (MICs) (mcg/ml).
Background: In agar dilution the substance is mixed into plates at graded concentrations.

In test [4] the test system is K. pneumoniae H521 (KPC, SHV, TEM). The test is described as above. Particulars: Klebsiella pneumoniae. The format is cell-based. Here is the method:
as §3, §4, §5

The subject of test [5] is K. pneumoniae S48 (NDM, SHV, TEM). The test is described as above. Conditions: Klebsiella pneumoniae. The format is cell-based. Here is the method: as §3, §4
In test [6] the target is T2, Class A beta-lactamase SHV 18 (K. pneumoniae ATCC 700603) (Klebsiella pneumoniae, UniProt P0AD64, E235K/G234A/I4F/R39S).
T2 sequence (P0AD64 1-286 I4F/R39S/G234A/E235K): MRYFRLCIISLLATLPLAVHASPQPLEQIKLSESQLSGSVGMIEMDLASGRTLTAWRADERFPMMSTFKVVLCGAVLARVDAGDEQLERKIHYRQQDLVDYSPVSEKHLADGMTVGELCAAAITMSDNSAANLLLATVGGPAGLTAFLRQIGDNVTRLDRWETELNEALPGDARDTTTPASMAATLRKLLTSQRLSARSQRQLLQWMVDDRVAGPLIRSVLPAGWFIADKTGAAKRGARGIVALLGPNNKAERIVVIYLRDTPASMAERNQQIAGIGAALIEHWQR
The test is described as follows: Beta-lactamase enzyme inhibition (Nitrocefin, crude enzyme). Particulars: Beta-lactamase enzyme inhibition IC50, Class A, K. pneumoniae ATCC 700603 (SHV 18). The format is biochemical. As for the experimental part:
as §1, §2

Test [7] deals with Class C beta-lactamase CMY/DHA (E. coli M50). Described as above. The format is biochemical. Here is the method:
as §1, §2

The subject of the next test is E. coli M50. Nature of the test: Zone of inhibition, agar well, with and without ceftazidime. Conditions: for Diameter of Zone of Inhibition, Compound + Ceftazidime (10 μg/ml): E. coli M50; for zone of inhibition at 0.25 µg/disc / zone of inhibition at 0.5 µg/disc / zone of inhibition at 1 µg/disc: Escherichia coli, M50, read-out: Diameter of Zone of Inhibition, Compound. The format is cell-based. As for the experimental part:
(§6) In a typical experiment, two sets of plates containing growth media (Molten Mueller Hilton Agar) and bacterial strains were prepared. One set of plates was taken as control (without ceftazidime) and other set contained ceftazidime. The media was allowed to solidify and wells were punched later, into which varying concentrations of compounds according to the invention were poured. A two-fold serial dilution range of each of the compounds according to invention was prepared and 50 μl of each of the dilution was added into the punched well. The plates were then incubated at 37° C. for 18 hours in BOD incubator and diameters of zone of inhibition were measured after the completion of the incubation.
(§7) The Table 6 provides the antibacterial activity of the combination comprising compounds according to invention and ceftazidime. The compounds according to invention were tested at 0.12, 0.25, 0.5 and 1 μg/well.

The test system of another test is E. coli NCTC 13353. Described as above. The format is cell-based. Particulars: for Diameter of Zone of Inhibition, Compound + Ceftazidime (10 μg/ml): E. coli NCTC 13353; for zone of inhibition at 0.25 µg/disc / zone of inhibition at 0.5 µg/disc / zone of inhibition at 1 µg/disc: Escherichia coli, NCTC13353, read-out: Diameter of Zone of Inhibition, Compound. Here is the method:
as §6, §7

Setting [8] is: Beta-lactamase enzyme inhibition IC50, Class D.
The mark [9] stands for this setting: compound 0.25 μg/well + Ceftazidime 10 μg/ml.
Setting [10] is: compound 0.5 μg/well + Ceftazidime 10 μg/ml.
[11] abbreviates: compound 1 μg/well + Ceftazidime 10 μg/ml.
[12] abbreviates: compound […] + Ceftazidime 10 μg/ml.
[13] abbreviates: NCTC13353, E. coli NCTC 13353 (CTX-M15, OXA-1), read-out: MIC.
The mark [14] stands for this setting: K. pneumoniae H521 (KPC, SHV, TEM), read-out: MIC.
Where [15] appears, read: Class D, read-out: Beta-lactamase enzyme inhibition IC50.

In brackets after ≈: the same amount, converted by molar mass. Where two headings read alike, the source gives them in different places.

T1 sequence (Q9L4P2 18-273): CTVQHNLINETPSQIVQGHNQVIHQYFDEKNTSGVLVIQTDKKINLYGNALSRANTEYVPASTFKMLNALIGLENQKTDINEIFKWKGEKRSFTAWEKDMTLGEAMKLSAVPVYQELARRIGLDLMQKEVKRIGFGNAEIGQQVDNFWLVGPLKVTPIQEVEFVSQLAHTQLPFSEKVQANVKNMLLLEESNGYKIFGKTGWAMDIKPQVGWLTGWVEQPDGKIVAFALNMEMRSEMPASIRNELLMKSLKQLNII
Sequence of Class D beta-lactamase OXA 26 (A. baumannii NCTC 13303) (Q9F0V2 entry or part of it): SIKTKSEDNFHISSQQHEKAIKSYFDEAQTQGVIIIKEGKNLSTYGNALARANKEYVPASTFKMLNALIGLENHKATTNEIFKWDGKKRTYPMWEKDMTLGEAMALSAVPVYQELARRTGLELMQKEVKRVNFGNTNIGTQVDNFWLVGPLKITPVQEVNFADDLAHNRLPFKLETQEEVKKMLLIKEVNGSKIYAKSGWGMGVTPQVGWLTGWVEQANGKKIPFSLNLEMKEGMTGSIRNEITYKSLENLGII

For the compound `O=C(O)[C@H]1/C(=C/CO)O[C@@H]2CC(=O)N21` [Clavulanic acid, clavulanic acid, reference compound], the half-inhibitory concentration (IC50) in [1] (setting [8]) and in test [2] was above 10000 nM in each case.

For the compound `O=C(CC1CNC1)NNC(=O)[C@@H]1CC[C@@H]2CN1C(=O)N2OS(=O)(=O)O` [Example 2, (2S,5R)-sulfuric acid mono-{2-[N′-(2-azetidin-3-yl-acetyl)-hydrazinocarbonyl]-7-oxo-1,6-diaza-bicyclo[3.2.1]oct-6-yl}ester], the figures for the MIC in [3] (NCTC13353), in test [4] and in [5] were 1 µg/mL (≈ 2.65 µM), 4 µg/mL (≈ 10.6 µM) and 2 µg/mL (≈ 5.3 µM), respectively. Also, the concentration for half-maximal inhibition (IC50) in test [6] worked out at 97 nM; in [7], 103 nM; in test [1] (setting [8]), 6190 nM. Also, the “Diameter of Zone of Inhibition, Compound + Ceftazidime (10 μg/ml)” value (from here on “Diameter of Zone of Inhibition”) in the test with E. coli M50 (setting [9]) is 19 mm; in the test with E. coli M50 (setting [10]) it was 22 mm; in the test on E. coli M50 (setting [11]), 23.5 mm; in the test with E. coli M50 (setting [12]) it was 15 mm; with E. coli NCTC 13353 (setting [9]), 24 mm; with E. coli NCTC 13353 (setting [10]), 26 mm. The results for the “Diameter of Zone of Inhibition” value in the test with E. coli NCTC 13353 (setting [11]) and in the test on E. coli NCTC 13353 (setting [12]) were 30 mm and 21 mm, respectively. The zone of inhibition at 0.25 µg/disc with E. coli M50 was determined as 9 mm; with E. coli NCTC 13353 it was 10 mm. Moreover, the results for the zone of inhibition at 0.5 µg/disc in the test with E. coli M50 and in the test with E. coli NCTC 13353 were 12 mm and 13 mm, respectively. The zone of inhibition at 1 µg/disc with E. coli M50 and in the test on E. coli NCTC 13353 was 15 mm throughout.

`CC(C)(O/N=C(\C(=O)N[C@@H]1C(=O)N2C(C(=O)[O-])=C(C[n+]3ccccc3)CS[C@H]12)c1csc(N)n1)C(=O)O` [Ceftazidime, ceftazidime, reference compound]: the minimum inhibitory concentration (MIC) in test [3] (setting [13]) is 32 µg/mL (≈ 58.5 µM); in test [4] (setting [14]), above 32 µg/mL; in test [5] (K. pneomoniae S48 (NDM, SHV, TEM), read-out: MIC), above 32 µg/mL.

For `O=C(CC1CCNCC1)NNC(=O)[C@@H]1CC[C@@H]2CN1C(=O)N2OS(=O)(=O)O` [Example 6, (2S,5R)-sulfuric acid mono-{2-[N′-(2-piperidin-4-yl-acetyl)-hydrazinocarbonyl]-7-oxo-1,6-diaza-bicyclo[3.2.1]oct-6-yl}ester], the minimal inhibitory concentration (MIC) in test [3] (NCTC13353) is 0.5 µg/mL (≈ 1.23 µM); in [4], 2 µg/mL (≈ 4.93 µM); in test [5], 1 µg/mL (≈ 2.47 µM). The IC50 in test [6] came to 60 nM; in [7], 37 nM; in test [1] (setting [15]) it was 1620 nM.

For the compound `O=C(C[C@@H]1CCCCN1)NNC(=O)[C@@H]1CC[C@@H]2CN1C(=O)N2OS(=O)(=O)O` [Example 3, (2S,5R)-sulfuric acid mono-{2-[N′-(2-(S)-piperidin-2-yl-acetyl)-hydrazinocarbonyl]-7-oxo-1,6-diaza-bicyclo[3.2.1]oct-6-yl}ester], the minimum inhibitory concentration (MIC) in test [3] (NCTC13353) was found to be 0.25 µg/mL (≈ 0.617 µM); in test [4] it was 0.5 µg/mL (≈ 1.23 µM); in test [5] it was 0.5 µg/mL (≈ 1.23 µM). Further, the half-maximal inhibitory concentration (IC50) in test [6] was found to be 74 nM; in test [7] it was 52 nM; in test [1] (setting [15]), 2110 nM. In addition, the “Diameter of Zone of Inhibition” value with E. coli M50 (setting [9]) was 17.5 mm; in the test on E. coli M50 (setting [10]), 20 mm; in the test with E. coli M50 (setting [11]) it was 22.5 mm; with E. coli M50 (setting [12]) it was 14.5 mm; in the test with E. coli NCTC 13353 (setting [9]) it was 22 mm; in the test on E. coli NCTC 13353 (setting [10]) it was 27 mm. The “Diameter of Zone of Inhibition” value in the test on E. coli NCTC 13353 (setting [11]) is listed as 30 mm; in the test on E. coli NCTC 13353 (setting [12]), 20 mm. For the same compound, the zone of inhibition at 0.25 µg/disc in the test on E. coli M50 is 13 mm; with E. coli NCTC 13353, 14 mm. Besides, the zone of inhibition at 0.5 µg/disc in the test with E. coli M50 amounted to 16 mm; in the test on E. coli NCTC 13353, 15 mm. In addition, the zone of inhibition at 1 µg/disc with E. coli M50 and in the test on E. coli NCTC 13353 was 17 mm in each case.

For the compound `O=C(C[C@H]1CCCCN1)NNC(=O)[C@@H]1CC[C@@H]2CN1C(=O)N2OS(=O)(=O)O` [Example 4, (2S,5R)-sulfuric acid mono-{2-[N′-(2-(R)-piperidin-2-yl-acetyl)-hydrazinocarbonyl]-7-oxo-1,6-diaza-bicyclo[3.2.1]oct-6-yl}ester], the MIC in [3] (NCTC13353) was found to be 2 µg/mL (≈ 4.93 µM); in test [4] it was 4 µg/mL (≈ 9.87 µM); in test [5] it was 2 µg/mL (≈ 4.93 µM). The half-maximal inhibitory concentration (IC50) was determined as 170 nM in test [6], 56 nM in test [7] and 2930 nM in [1] (setting [15]).

As for `O=C(C[C@@H]1CCCNC1)NNC(=O)[C@@H]1CC[C@@H]2CN1C(=O)N2OS(=O)(=O)O` [Example 5, (2S,5R)-sulfuric acid mono-{2-[N′-(2-(S)-piperidin-3-yl-acetyl)-hydrazinocarbonyl]-7-oxo-1,6-diaza-bicyclo[3.2.1]oct-6-yl}ester], the minimum inhibitory concentration (MIC) in test [3] (NCTC13353, 18 h) amounted to 0.5 µg/mL (≈ 1.23 µM); in test [4] (18 h), 4 µg/mL (≈ 9.87 µM); in test [5] (18 h), 1 µg/mL (≈ 2.47 µM). The IC50 in test [6] came to 160 nM; in test [1] (setting [15]) it was 1730 nM.

On to `C[C@@H](O)[C@H]1C(=O)N2C(C(=O)O)=C(SCCN=CN)C[C@H]12` [Imipenem, imipenem, reference compound], for which the minimum inhibitory concentration (MIC) in [3] (setting [13]) was 0.25 µg/mL (≈ 0.835 µM).

In the case of `O=C(CC1CNCCN1)NNC(=O)[C@@H]1CC[C@@H]2CN1C(=O)N2OS(=O)(=O)O` (mixture of isomers) [Example 7, (2S,5R)-sulfuric acid mono-{2-[N′-(2-(RS)-piperazin-2-yl-acetyl)-hydrazinocarbonyl]-7-oxo-1,6-diaza-bicyclo[3.2.1]oct-6-yl}ester], the MIC amounted to 2 µg/mL in [3] (setting [13]), 4 µg/mL in test [4] (setting [14]) and 2 µg/mL in test [5]. In addition, the IC50 in [6] was 67 nM; in test [7], 70 nM; in test [1] (setting [15]), 2840 nM.

The values above are taken from patent US9657022B2, “7-OXO-1,6-diazabicyclo[3.2.1]octane derivatives and their use as antibacterial agents” (WOCKHARDT LIMITED, priority 2014, dated 2017).
